Reference: patent US20190211099A1, “METHODS AND COMPOSITIONS FOR TREATING CANCER WITH SIGLEC-9 ACTIVITY MODULATORS” (KING'S COLLEGE LONDON, priority 2016, published 2019)

Columns and labels:
[1] = tested on: monocytes; experiment: Nitric oxide release by monocytes (Griess method); assay type: cell-based, human
Procedure: MUC1-ST was further evaluated for its ability to produce pro-inflammatory nitric oxide, a product of the arginine processing enzyme (Thompson et al. (2015) CARCINOGENESIS 36: S232-S253). Supernatant was assessed using the Griess method according to the manufacturer's instructions (Biotium).

[2] = tested on: macrophages; experiment: Kynurenine in supernatant of MUC1-ST treated macrophages (Ehrlich Reagent); assay type: cell-based, human
Procedure: Given that IDO catalyzes the rate-limiting step in the metabolism of tryptophan, the tryptophan metabolite kynurenine was detected as follows. 604, supernatant was mixed with 304, 30% trichloroacetic acid (TCA) and incubated for 30 minutes at 50° C. The supernatant was spun at 3000×g and 50 μL was harvested and mixed with 50 μL freshly prepared Ehrlich Reagent (2% p-dimethylaminobenzaldehyde in glacial acetic acid). After 10 minutes optical density (O.D.) was measured at 492 nm, and concentrations were calculated against a kynurenine standard curve. An increase in the tryptophan metabolite kynurenine was observed (FIG. 11D).

[3] = tested on: allogeneic CD8+ T cells; experiment: Co-culture of MUC1-ST treated macrophages with allogeneic CD8+ T cells; assay type: cell-based, human; conditions: macrophages educated with MUC1-ST
Procedure: Thereafter, the effects of MUC1-ST educated macrophages on T cell function were analyzed. Macrophages treated with MUC1-ST were co-cultured with eFluor® 670 labelled allogeneic CD8+ T cells in the presence of absence of anti-Siglec-9 antibody or isotype control. Indeed, macrophages that had been educated with MUC1-ST were decreased in their ability to stimulate the proliferation of allogeneic CD8 T cells (FIG. 11E). […] (FIG. 11F). This profile of expression and functional activity is indicative of tumor-associated macrophages (TAMs), which play a role in promoting tumor progression (Noy et al. (2014) IMMUNITY 41: 49-61; Sousa et al. (2015) BREAST CANCER RES. 17: 101; Qian et al. (2010) CELL 141: 39-45).

[4] = tested on: SHP1; experiment: Western blot for phosphorylation of SHP1 in monocytes; assay type: cell-based, human; conditions: primary monocytes
Procedure: (§1) A Western blot to assay phosphorylation of SHP, which is recruited by phosphorylated Siglec-9 (Avril et al. (2004) supra) was conducted. Monocytes were incubated with MUC1-ST and lysed as described above, and the resulting lysates were separated by SDS PAGE (10% gel) before being transferred, blocked and probed with anti-SHP1 (Santa Cruz), anti-phospho SHP1 (Abcam) and appropriate secondary antibodies. Phosphorylation of SHP was not observed after MUC1-ST binding to Siglec-9 on primary monocytes (FIG. 13C) although again, phosphorylation of SHP1 was observed when Siglec-9 was activated via antibody cross-linking. No activation of SHP2 was observed.

[5] = tested on: SHP2; experiment: Activation of SHP2 after MUC1-ST binding; assay type: cell-based, human
Procedure: ELISAs for IL-6, IL-12p70, TGF-β1, PAI-1, M-CSF, EGF, SHP2, phospho-SHP2 (Biotechne) were all carried out as per manufacturer's instructions.
as §1

[6] = biological target: Siglec-9 (Homo sapiens, UniProt Q9Y336); experiment: Binding of biotinylated MUC1-ST to primary monocytes and monocyte-derived macrophages (flow cytometry), with or without blocking antibody; assay type: cell-based; set-up: endogenous in cells; host or cells: THP-1 and U937 cells; conditions: primary monocytes, monocyte-derived macrophages and AML lines
Procedure: Both the cell phenotype staining and neutralization studies described in the Examples were performed using the following antibodies (all anti-human): Siglec-9 (Biotechne; 191240), Siglec-9 FITC (Biotechne; 191240), Siglec-3 (Biotechne; 6C5/2), Siglec-7 (Biotechne; AF1138), Siglec-3 FITC (BD; P67.6), Siglec-7 PE (Biolegend; 6-434), Siglec-10 PE (Biolegend; 5G6), Siglec-1 (abcam; 7D2), HLA-DR FITC (Beckman Coulter; IM0463U), CD16 FITC (Biolegend; B73.1), CD14 FITC (BD 555397), CD69 PE (Beckman Coulter; IM1943), CD25 FITC (ABX228FITC), CD86 PE (Beckman Coulter; IM2729U), CD40 FITC (BD 555588), CD83 PE (Beckman Coulter; IM2218), CD163 PE (Biolegend; GHI/61), CXCR1 FITC (BD Pharmongen; 551126), CD45 PC5 (Beckman Coulter; IM2653U), CD206 PE (ebioscience; 19.2), PD-L1 PE (Biolegend; 29E.2A3), CD36 (Santa Cruz; H-300), TGFbetaRII (Bio-Techne; AF-241), IL-6Rα (Tocilizumab; Roche. A generous gift from Dr. Valerie Corrigall). Cells were suspended in PBS+0.5% BSA (2×10^5 cells/100 μL/sample) and incubated with Abs according to the manufacturer's instructions. At least 1×10^4 events were evaluated using either Epics XL, (Beckman Coulter) or FACSCalibur (BD Biosciences) flow cytometers. […]
To investigate the interaction of MUC1-ST with cells of the immune system, immune cell subsets were obtained as follows. […] Purity was assessed at >95% by staining with relevant antibodies. […]

Siglec-9, sequence (Q9Y336 18-463): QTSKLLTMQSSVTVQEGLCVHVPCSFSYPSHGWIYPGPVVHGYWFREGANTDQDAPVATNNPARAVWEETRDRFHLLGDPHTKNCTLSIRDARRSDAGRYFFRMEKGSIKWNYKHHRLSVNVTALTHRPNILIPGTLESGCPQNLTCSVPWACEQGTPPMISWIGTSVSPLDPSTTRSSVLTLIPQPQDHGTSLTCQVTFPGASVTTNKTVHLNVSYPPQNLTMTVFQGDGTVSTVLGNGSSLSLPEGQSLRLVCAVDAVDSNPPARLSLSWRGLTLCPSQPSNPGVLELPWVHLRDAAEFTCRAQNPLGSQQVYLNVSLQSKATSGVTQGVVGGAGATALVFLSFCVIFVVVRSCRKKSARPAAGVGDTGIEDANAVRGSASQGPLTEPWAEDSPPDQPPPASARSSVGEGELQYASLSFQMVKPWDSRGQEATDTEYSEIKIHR

Substance: NeuAcα2,3Galβ1-3GalNAc linked via a Ser/Thr of MUC1 [MUC1-ST]
- nitric oxide production [1]: produced nitric oxide
- tryptophan metabolite kynurenine in supernatant [2]: increase
- CD8 IFNγ secretion [3]: decreased
- ability of macrophages to stimulate proliferation of allogeneic CD8 T cells [3]: decreased
- phosphorylation of SHP [4]: not observed
- activation of SHP2 [5]: No activation
- binding to cells [6]: found to bind
